Target: T1, human DGAT1 (Homo sapiens, UniProt O75907)
T1 construct: FLAG (N); made in house; host or cells: SF9 insect cells (baculovirus, pFastBac); total cell membranes used as the enzyme source
T1 sequence (O75907 1-488): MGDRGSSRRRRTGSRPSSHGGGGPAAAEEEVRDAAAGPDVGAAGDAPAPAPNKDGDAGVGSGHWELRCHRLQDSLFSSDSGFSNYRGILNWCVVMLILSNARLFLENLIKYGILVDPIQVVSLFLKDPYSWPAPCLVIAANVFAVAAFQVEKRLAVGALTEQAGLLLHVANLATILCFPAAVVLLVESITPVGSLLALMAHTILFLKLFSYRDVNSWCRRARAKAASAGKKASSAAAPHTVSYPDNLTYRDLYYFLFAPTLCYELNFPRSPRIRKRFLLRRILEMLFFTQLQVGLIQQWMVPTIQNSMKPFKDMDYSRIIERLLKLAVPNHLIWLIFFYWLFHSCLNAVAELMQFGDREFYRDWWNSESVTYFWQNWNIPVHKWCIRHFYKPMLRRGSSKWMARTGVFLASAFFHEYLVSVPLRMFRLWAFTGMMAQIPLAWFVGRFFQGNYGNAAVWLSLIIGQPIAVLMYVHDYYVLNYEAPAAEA
Assay: DGAT1 FlashPlate inhibition assay with DGAT1 membrane preparations
Type: biochemical
Details: IC50 values expressed in M; pIC50 = -logIC50; inhibition of DGAT1 activity
From the text: The inhibiting activity of the present compounds on DGAT1 activity was screened in a single well procedure assay using DGAT1 comprising membrane preparations and DGAT1 substrate comprising micelles and determining formed radio-active triacylglycerol coming in close proximity of a flashplate surface by radioluminescence.
Said assay is described in full detail in WO2006/067071, the content of which is incorporated herein by reference.
By DGAT1 activity is meant the transfer of coenzyme A activated fatty acids to the 3-position of 1,2-diacylglycerols, thus forming a triglyceride molecule, by enzyme DGAT1.
human DGAT1 (NM012079.2) was cloned into the pFastBac vector, containing translation start, a FLAG-tag at the N-terminus as described in literature and a viral Kozak sequence (AAX) preceding the ATG to improve expression in insect cells. Expression was done as described in literature (Cases, S., Smith, S. J., Zheng, Y., Myers H. M., Lear, S. R., Sande, E., Novak, S., Collins, C., Welch, C. B., Lusis, A. J., Erickson, S. K. and Farese, R. V. (1998) Proc. Natl. Acad. Sci. USA 95, 13018-13023.) using SF9 cells.
72 h transfected SF9 cells were collected by centrifugation (13000 rpm-15 min-4° C.) and lysed in 2×500 ml lysis buffer (0.1M Sucrose, 50 mM KCl, 40 mM KH2PO4, 30 mM EDTA pH 7.2. Cells were homogenized by cell disruptor. After centrifugation 1380 rpm-15 min-4° C. (SN discarded), pellet was resuspended in 500 ml lysis buffer and total cell membranes collected by ultracentrifugation at 34000 rpm (100 000 g) for 60 min (4° C.). The collected membranes were resuspended in lysis buffer, divided in aliquots and stored with 10% glycerol at −80° C. until use.
Add 1 ml dioleoyl-sn-glycerol (10 mg/ml) to 10 ml of L-α-phosphatidylcholine (1 mg/ml) and 10 ml of L-α-phosphatidyl-L-serine (1 mg/ml) in a thick glass recipient. Evaporate under nitrogen and put on ice for 15 minutes. Reconstitute in 10 ml Tris/HCl (10 mM, pH 7.4) by sonication on ice. The sonification process consists of sonification cycles of 10 seconds in the sonification bath followed by 10 seconds cool down on ice and repeating this sonification cycle till a homogeneous solution is obtained (takes about 15 minutes). The thus obtained micelles are stored at −20° C. till later use and contain DAG at a final concentration of 1.61 mM.
• 50 mM Tris-HCl (pH 7.4), 150 mM MgCl2, 1 mM EDTA, 0.2% BSA. b) N-ethylmaleimide, 5M • Dissolve 5 g into a final volume of 8 ml DMSO 100% and store at −20° C. in aliquots till later use. c) Substrate mix (for 1 384 well plate=3840 μl) • 612 μl micelles stock (51 μM final) • 16.6 μl oleoylCoA 9.7 mM • 23 μl [^3H]-oleoylCoA (49 Ci/mmol, 500 μCi/ml) • 3188.4 μl Tris pH 7.4, 10 mM d) Enzyme mix (for 1 384 well plate=3520 μl) (5 μg/ml) • Add 11.73 μl of DGAT membrane stock (1500 μg/ml stock) to 3508 μl assay buffer. e) Stop mix (for 1 384 well plate=7.68 ml) (250 mM) • Add 384 μl of N-ethylmaleimide (5M) to 3.456 ml DMSO 100%, and further dilute 3.84 ml of said solution with 3.84 ml DMSO 10%. Method
DGAT activity in membrane preparations was assayed in 50 mM Tris-HCl (pH 7.4), 150 mM MgCl2, 1 mM EDTA and 0.2% BSA, containing 50 μM DAG, […] PC/PS and 8.4 μM [^3H]-oleoylCoA (at a specific activity of 30 nCi/well) in a final volume of 50 μl in 384-well format using the red shifted Basic Image FlashPlate™ (Perkin Elmer Cat. No. SMP400).
In detail, 10 μl enzyme mix and 10 μl substrate mix were added to 30 μl of assay buffer, optionally in the presence of 1 μl DMSO (blank and controls) or 1 μl of the compound to be tested. This reaction mixture was incubated for 120 minutes at 37° C. and the enzymatic reaction stopped by adding 20 μl of the stop mix. The plates were sealed and the vesicles allowed to settle overnight at room temperature. Plates were centrifuged for 5 minutes at 1500 rpm and measured in Leadseeker. […]

Row | Structure (SMILES) | IC50 [nM]
1 | O=C(Nc1ccc(N2CCN(C(=O)c3c(Cl)cccc3Cl)CC2)cc1)c1ccccc1-c1ccc(C(F)(F)F)cc1 [Compound 6] | 9120
2 | O=C(Nc1ccc(N2CCN(C(=O)Nc3c(Cl)cccc3Cl)CC2)cc1)c1ccc(N2CCOCC2)cc1 [Compound 38] | 11
3 | O=C(Nc1ccc(C2CCN(C(=O)Nc3c(Cl)cccc3Cl)CC2)cc1)C1CNC1 [Compound 46] | 2400
4 | CC(C)(C)OC(=O)N1CC(C(=O)Nc2ccc(C3CCN(C(=O)Nc4c(Cl)cccc4Cl)CC3)cc2)C1 [Compound 1] | 8.13
5 | O=C(Nc1ccc(N2CCN(C(=S)Nc3ccc(Cl)cc3Cl)CC2)cc1)c1ccccc1-c1ccc(C(F)(F)F)cc1 [Compound 68] | 7240
6 | O=C(Nc1ccc(N2CCN(C(=O)Nc3c(Cl)cccc3Cl)CC2)cc1)c1ccc(-n2ccnc2)cc1 [Compound 24] | 347
7 | O=C(Nc1ccc(N2CCN(C(=O)NCCCc3ccccc3)CC2)cc1)c1ccccc1-c1ccc(C(F)(F)F)cc1 [Compound 71] | 3550
8 | CCc1nc(C)c(-c2ccccc2C(=O)Nc2ccc(C3CCN(C(=O)Nc4c(Cl)cccc4Cl)CC3)cc2)s1 [Compound 55] | 26.3
9 | Cc1n[nH]c(C)c1-c1ccccc1C(=O)Nc1ccc(N2CCN(C(=O)Nc3c(Cl)cccc3Cl)CC2)cc1 [Compound 26] | 398
10 | O=C(Nc1ccc(N2CCN(C(=O)Nc3c(Cl)cccc3Cl)CC2)cc1)c1cccc(-n2ccnc2)c1 [Compound 23] | 33.1
11 | CC(C)(C)OC(=O)N1CCCC1C(=O)Nc1ccc(C2CCN(C(=O)Nc3c(Cl)cccc3Cl)CC2)cc1 (centres unmarked) [Compound 51] | 490
12 | Cc1nnnn1-c1cccc(C(=O)Nc2ccc(N3CCN(C(=O)Nc4c(Cl)cccc4Cl)CC3)cc2)c1 [Compound 31] | 269
13 | Cc1ccc(C)n1-c1cccc(C(=O)Nc2ccc(N3CCN(C(=O)Nc4c(Cl)cccc4Cl)CC3)cc2)c1 [Compound 20] | 30.9
14 | O=C(Nc1ccc(N2CCN(C(=O)Nc3c(Cl)cccc3Cl)CC2)cc1)c1ccc(-c2nnn[nH]2)cc1 [Compound 33] | 1950
15 | CC(C)(C)OC(=O)N1CCCC(C(=O)Nc2ccc(C3CCN(C(=O)Nc4c(Cl)cccc4Cl)CC3)cc2)C1 (centres unmarked) [Compound 52] | 17.4
16 | CN(C)c1ccc(NC(=O)N2CCN(c3ccc(NC(=O)c4ccccc4-c4ccc(C(F)(F)F)cc4)cc3)CC2)cc1 [Compound 73] | 3550
17 | Cc1cccc(C(=O)Nc2ccc(C3CCN(C(=O)Nc4c(Cl)cccc4Cl)CC3)cc2)c1-c1ccc(C(F)(F)F)cc1 [Compound 59] | 2040
18 | O=C(Nc1ccc(N2CCN(C(=O)Nc3c(Cl)cccc3Cl)CC2)cc1)c1cccc(-c2cnco2)c1 [Compound 16] | 12
19 | Cc1nc(-c2ccc(C(=O)Nc3ccc(N4CCN(C(=O)Nc5c(Cl)cccc5Cl)CC4)cc3)cc2)no1 [Compound 30] | 4.47
20 | O=C(Nc1ccc(C2CCN(C(=O)Nc3c(Cl)cccc3Cl)CC2)cc1)c1ccccc1-c1ccc(Cl)cc1 [Compound 57] | 646
21 | Cc1ccc2c(c1)C(=O)c1cc(C)cc(C(=O)Nc3ccc(C4CCN(C(=O)Nc5c(Cl)cccc5Cl)CC4)cc3)c1-2 [Compound 64] | 132
22 | O=C(Nc1ccc(N2CCN(C(=O)Nc3c(Cl)cccc3Cl)CC2)cc1)c1ccc(-c2cc[nH]n2)cc1 [Compound 25] | 70.8

The remaining lines, values ahead:

Row | IC50 [nM] | Structure (SMILES)
23 | 2140 | CCc1ccccc1NC(=O)N1CCN(c2ccc(NC(=O)c3ccccc3-c3ccc(C(F)(F)F)cc3)cc2)CC1 [Compound 75]
24 | 1230 | O=C(Nc1ccc(C2CCN(C(=O)Nc3c(F)cc(F)cc3Br)CC2)cc1)c1ccccc1-c1ccc(C(F)(F)F)cc1 [Compound 114]
25 | 4170 | COc1ccc(CNC(=O)N2CC=C(c3ccc(NC(=O)c4ccccc4-c4ccc(C(F)(F)F)cc4)cc3)CC2)cc1 [Compound 123]
26 | 8130 | CCOc1ccccc1NC(=O)N1CCN(c2ccc(NC(=O)c3ccccc3-c3ccc(C(F)(F)F)cc3)cc2)CC1 [Compound 81]
27 | 9770 | COC(=O)c1ccccc1NC(=O)N1CCN(c2ccc(NC(=O)c3ccccc3-c3ccc(C(F)(F)F)cc3)cc2)CC1 [Compound 86]
28 | 661 | Cc1cccc(C)c1NC(=O)N1CCC(c2ccc(NC(=O)c3ccccc3-c3ccc(C(F)(F)F)cc3)cc2)CC1 [Compound 128]
29 | 7590 | CCCc1ccccc1NC(=O)N1CCN(c2ccc(NC(=O)c3ccccc3-c3ccc(C(F)(F)F)cc3)cc2)CC1 [Compound 76]
30 | 7.24 | O=C(Nc1cccc(N2CCCC2)c1)c1ccc(N2CCN(C(=O)Nc3c(Cl)cc(CN4CCCC4)cc3Cl)CC2)cc1 [Compound 130]
31 | 170 | Cc1cc(C)c(NC(=O)N2CCN(c3ccc(NC(=O)c4ccccc4-c4ccc(C(F)(F)F)cc4)cc3)CC2)c(Cl)c1 [Compound 102]
32 | 5250 | COc1cccc(OC)c1NC(=O)N1CCN(c2ccc(NC(=O)c3ccccc3-c3ccc(C(F)(F)F)cc3)cc2)CC1 [Compound 84]
33 | 4470 | CC(C)c1ccccc1NC(=O)N1CCN(c2ccc(NC(=O)c3ccccc3-c3ccc(C(F)(F)F)cc3)cc2)CC1 [Compound 77]
34 | 7410 | CCOC(=O)c1ccccc1NC(=O)N1CCN(c2ccc(NC(=O)c3ccccc3-c3ccc(C(F)(F)F)cc3)cc2)CC1 [Compound 87]
35 | 1950 | Cc1cc(Br)cc(C)c1NC(=O)N1CCC(c2ccc(NC(=O)c3ccccc3-c3ccc(C(F)(F)F)cc3)cc2)CC1 [Compound 115]
36 | 1700 | O=C(Nc1ccc(N2CCN(C(=O)Nc3ccccc3Cl)CC2)cc1)c1ccccc1-c1ccc(C(F)(F)F)cc1 [Compound 89]
37 | 2000 | Cc1cc(C)c(NC(=O)N2CCN(c3ccc(NC(=O)c4ccccc4-c4ccc(C(F)(F)F)cc4)cc3)CC2)c(C)c1Br [Compound 104]
38 | 4900 | O=C(Nc1ccc(C2=CCN(C(=O)NCc3ccccc3)CC2)cc1)c1ccccc1-c1ccc(C(F)(F)F)cc1 [Compound 121]
39 | 1070 | Cc1cccc(Cl)c1NC(=O)N1CCC(c2ccc(NC(=O)c3ccccc3-c3ccc(C(F)(F)F)cc3)cc2)CC1 [Compound 113]
40 | 955 | CCc1cccc(C)c1NC(=O)N1CCC(c2ccc(NC(=O)c3ccccc3-c3ccc(C(F)(F)F)cc3)cc2)CC1 [Compound 110]
41 | 5500 | COc1ccccc1NC(=O)N1CCN(c2ccc(NC(=O)c3ccccc3-c3ccc(C(F)(F)F)cc3)cc2)CC1 [Compound 80]
